Experimental data reported in patent US20240166665A1, “COVALENT EGFR INHIBITORS AND METHODS OF USE THEREOF” (Dana-Farber Cancer Institute, Inc., priority 2021, published 2024).

Tests used:
[1] = test system: NSCLC that have developed resistance to gefitinib or erlotinib; settings: patients with NSCLC resistant to gefitinib or erlotinib; cited from earlier work
EGFR L858R/T790M [2] = biological target: T1, EGFR L858R/T790M (Homo sapiens (Human), UniProt P00533, L858R/T790M); assay: MS intact labeling assay; assay type: binding; settings: 10-fold molar excess of compound, 2 h at 30° C., LC-MS
T1 sequence (P00533 25-1210 T790M/L858R): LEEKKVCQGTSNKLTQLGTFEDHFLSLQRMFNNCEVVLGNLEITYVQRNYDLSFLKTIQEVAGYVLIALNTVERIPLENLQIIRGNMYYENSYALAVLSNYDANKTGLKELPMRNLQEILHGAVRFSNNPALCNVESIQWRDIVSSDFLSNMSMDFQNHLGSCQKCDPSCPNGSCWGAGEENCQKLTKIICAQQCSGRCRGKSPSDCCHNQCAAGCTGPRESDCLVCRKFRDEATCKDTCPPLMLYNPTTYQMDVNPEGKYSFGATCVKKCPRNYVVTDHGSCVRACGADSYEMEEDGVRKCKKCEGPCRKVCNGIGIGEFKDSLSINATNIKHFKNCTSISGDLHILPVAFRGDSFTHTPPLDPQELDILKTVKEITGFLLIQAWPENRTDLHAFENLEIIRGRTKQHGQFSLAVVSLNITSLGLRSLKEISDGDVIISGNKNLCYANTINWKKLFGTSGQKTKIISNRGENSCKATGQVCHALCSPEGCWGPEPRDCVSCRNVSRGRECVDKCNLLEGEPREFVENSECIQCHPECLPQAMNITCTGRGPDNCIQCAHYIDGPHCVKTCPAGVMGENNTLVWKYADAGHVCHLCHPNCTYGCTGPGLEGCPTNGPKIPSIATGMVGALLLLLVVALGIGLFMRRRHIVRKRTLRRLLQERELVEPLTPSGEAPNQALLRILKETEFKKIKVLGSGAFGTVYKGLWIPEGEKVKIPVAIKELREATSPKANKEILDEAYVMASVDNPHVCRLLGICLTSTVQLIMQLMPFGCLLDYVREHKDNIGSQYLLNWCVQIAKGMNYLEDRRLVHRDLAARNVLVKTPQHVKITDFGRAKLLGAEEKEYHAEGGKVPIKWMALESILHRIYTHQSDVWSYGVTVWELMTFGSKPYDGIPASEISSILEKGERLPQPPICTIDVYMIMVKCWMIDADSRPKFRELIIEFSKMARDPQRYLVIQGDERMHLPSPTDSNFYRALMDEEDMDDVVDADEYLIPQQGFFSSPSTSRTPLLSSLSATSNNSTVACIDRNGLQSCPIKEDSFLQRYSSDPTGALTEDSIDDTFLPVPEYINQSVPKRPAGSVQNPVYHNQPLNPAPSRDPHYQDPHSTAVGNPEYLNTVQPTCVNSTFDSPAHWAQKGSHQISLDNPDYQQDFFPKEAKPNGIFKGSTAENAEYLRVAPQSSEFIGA
Experimental: (§1) EGFR L858R/T790M protein (10 μg) or EGFR L858R/T790M/C797S protein was treated with DMSO or a 10-fold molar excess of compound 001 for 2 h at 30° C. and analyzed by LC-MS using an HPLC (Shimadzu, Marlborough, MA) interfaced to an LTQ ion trap mass spectrometer (ThermoFisher Scientific, San Jose, CA). Protein (5 μg) was injected onto a reversed phase column (5 cm POROS 50R2, Applied Biosystems, Foster City, CA), desalted for 4 min (100% A), and gradient eluted (0-100% B in 1 min; A=0.2 M acetic acid in water; B=0.2 M acetic acid in acetonitrile) into the mass spectrometer (spray voltage=4.8 kV). The mass spectrometer was programmed to acquire profile mass spectra (m/z 300-2000). Raw data was deconvoluted using MagTran version 1.03b2.38.

[3] = biological target: EGFR L858R/T790M/C797S protein (Homo sapiens (Human), UniProt P00533, C797S/L858R/T790M); assay: MS intact labeling assay; assay type: binding; settings: 10-fold molar excess of compound, 2 h at 30° C., LC-MS
EGFR L858R/T790M/C797S protein, sequence (P00533 25-1210 T790M/C797S/L858R): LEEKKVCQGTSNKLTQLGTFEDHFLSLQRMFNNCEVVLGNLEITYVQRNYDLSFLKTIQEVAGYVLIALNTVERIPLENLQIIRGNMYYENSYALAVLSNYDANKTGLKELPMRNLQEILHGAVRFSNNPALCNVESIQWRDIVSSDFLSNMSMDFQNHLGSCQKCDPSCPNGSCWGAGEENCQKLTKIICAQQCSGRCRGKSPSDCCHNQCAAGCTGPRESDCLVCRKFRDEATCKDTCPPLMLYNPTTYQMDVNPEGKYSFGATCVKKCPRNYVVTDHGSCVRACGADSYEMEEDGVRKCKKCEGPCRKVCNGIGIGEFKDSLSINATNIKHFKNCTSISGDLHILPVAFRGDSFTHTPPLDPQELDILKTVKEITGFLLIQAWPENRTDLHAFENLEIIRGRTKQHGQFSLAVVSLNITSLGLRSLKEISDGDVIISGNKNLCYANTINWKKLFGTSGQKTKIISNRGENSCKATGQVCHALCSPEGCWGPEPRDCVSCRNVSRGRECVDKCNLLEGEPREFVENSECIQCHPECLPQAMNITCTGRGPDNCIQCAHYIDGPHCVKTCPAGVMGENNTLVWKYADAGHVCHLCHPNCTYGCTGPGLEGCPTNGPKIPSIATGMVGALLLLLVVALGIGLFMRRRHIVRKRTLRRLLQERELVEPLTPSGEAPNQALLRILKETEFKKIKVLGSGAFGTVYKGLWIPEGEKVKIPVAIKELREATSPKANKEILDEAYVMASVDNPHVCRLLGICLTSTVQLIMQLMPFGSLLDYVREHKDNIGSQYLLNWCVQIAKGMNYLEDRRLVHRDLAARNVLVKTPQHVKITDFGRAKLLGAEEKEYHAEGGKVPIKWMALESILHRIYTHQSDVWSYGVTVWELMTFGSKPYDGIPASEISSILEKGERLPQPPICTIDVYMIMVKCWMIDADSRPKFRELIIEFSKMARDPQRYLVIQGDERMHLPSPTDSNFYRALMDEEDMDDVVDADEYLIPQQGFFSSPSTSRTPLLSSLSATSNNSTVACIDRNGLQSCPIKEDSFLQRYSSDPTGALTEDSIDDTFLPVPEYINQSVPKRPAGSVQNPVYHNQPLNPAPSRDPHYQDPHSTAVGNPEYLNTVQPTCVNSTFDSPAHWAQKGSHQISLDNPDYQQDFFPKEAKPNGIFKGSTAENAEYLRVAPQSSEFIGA
Experimental: as §1

EGFR L858R = EGFR L858R (Homo sapiens (Human), UniProt P00533, L858R); assay: HTRF-based EGFR biochemical assay; settings: 100 μM ATP, 30 min preincubation, enzyme 0.1 nM
EGFR L858R, sequence (P00533 25-1210 L858R): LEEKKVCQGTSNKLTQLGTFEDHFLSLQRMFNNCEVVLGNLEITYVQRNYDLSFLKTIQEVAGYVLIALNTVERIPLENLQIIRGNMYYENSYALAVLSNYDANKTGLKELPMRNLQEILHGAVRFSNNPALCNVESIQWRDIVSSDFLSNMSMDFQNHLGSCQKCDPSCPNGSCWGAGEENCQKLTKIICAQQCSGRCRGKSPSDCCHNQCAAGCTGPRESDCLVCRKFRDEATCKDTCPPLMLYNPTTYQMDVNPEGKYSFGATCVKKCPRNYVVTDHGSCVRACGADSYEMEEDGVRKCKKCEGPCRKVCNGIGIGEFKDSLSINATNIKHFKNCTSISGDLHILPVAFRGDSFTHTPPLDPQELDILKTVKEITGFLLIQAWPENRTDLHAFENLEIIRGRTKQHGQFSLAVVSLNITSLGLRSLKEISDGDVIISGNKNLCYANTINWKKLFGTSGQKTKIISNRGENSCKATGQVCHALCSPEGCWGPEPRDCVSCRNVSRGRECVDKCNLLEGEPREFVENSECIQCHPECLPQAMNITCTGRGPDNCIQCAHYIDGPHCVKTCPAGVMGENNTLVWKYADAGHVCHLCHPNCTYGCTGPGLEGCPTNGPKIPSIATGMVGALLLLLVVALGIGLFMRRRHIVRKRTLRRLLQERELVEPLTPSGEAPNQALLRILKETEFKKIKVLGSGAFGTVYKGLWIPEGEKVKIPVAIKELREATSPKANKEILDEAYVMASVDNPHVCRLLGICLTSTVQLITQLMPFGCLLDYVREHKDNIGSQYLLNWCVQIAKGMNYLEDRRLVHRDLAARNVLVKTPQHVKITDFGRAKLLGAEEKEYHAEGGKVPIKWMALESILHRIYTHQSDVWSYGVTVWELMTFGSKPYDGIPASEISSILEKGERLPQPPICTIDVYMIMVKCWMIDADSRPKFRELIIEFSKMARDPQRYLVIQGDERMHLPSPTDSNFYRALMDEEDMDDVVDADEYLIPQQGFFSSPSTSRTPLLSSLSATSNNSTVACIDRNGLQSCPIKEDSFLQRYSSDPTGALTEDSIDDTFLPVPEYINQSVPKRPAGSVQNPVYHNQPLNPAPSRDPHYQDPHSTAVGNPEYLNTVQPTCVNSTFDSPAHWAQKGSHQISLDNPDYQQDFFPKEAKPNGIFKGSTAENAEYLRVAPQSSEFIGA
Experimental: (§2) EGFR biochemical activity measurements were carried out using the homogeneous time-resolved fluorescence (HTRF) assay (Cisbio). Inhibitors and DMSO normalizations were first dispensed to empty black low-volume 384-well plates (Corning) with D300 digital liquid dispenser (HP). All reactions were carried out at room temperature and solutions were added to plates with a Multidrop Combi Reagent Dispenser (ThermoFisher). The reaction mixture (10 μL final volume) contained 1 μM tyrosine kinase peptide-biotin substrate and mutant EGFR in a reaction buffer (50 mM HEPES pH 7.0, 5 mM MgCl2, 1 mM MnCl2, 0.01% BSA, 2 mM TCEP, 0.1 mM NaVO4). Enzyme concentrations were adjusted to accommodate varying kinase activities (L858R^0.1 nM, L858R/T790M 0.02 nM). Enzyme reaction solution (2× concentrations, 5 μL) was added to 384-well plates containing compounds and incubated for 30 mins. Enzyme reactions were initiated with the addition of 5 μL of ATP to a final concentration of 100 μM and reacted for 20 mins. Reactions were quenched with the addition of 10 μL of phospho-tyrosine antibody-Europium(III) cryptate (1-to-180 volume ratio) and Streptavidin-XL665 (46.7 nM) in EDTA-containing detection buffer, then incubated at room temperature for 1 hour, and read with a PHERAstar plate reader (excitation=337 nm, emission=620 nm and 665 nm). IC50 values were determined by inhibition curves (11-point curves from 1.0 μM to 0.130 nM or 23-point curves from 1.0 μM to […]) in triplicate with non-linear least squares fit in GraphPad Prism 7.0d.

EGFR L858R/T790M [4] = biological target: T1, EGFR L858R/T790M; assay: HTRF-based EGFR biochemical assay; settings: 100 μM ATP, 30 min preincubation, enzyme 0.02 nM
Experimental: as §2

BaF3 EGFR L858R = assay: Ba/F3 cell proliferation (Cell Titer Glo); assay type: cell-based, murine; settings: Mus musculus, 72 hours exposure
From the text: (§3) The EGFR mutant L858R Ba/F3 cells have been previously described (Zhou, W., et al. Nature 462, 2009, 1070-1074). The EGFR C797S and C775S mutations were introduced via site directed mutagenesis using the Quick Change Site-Directed Mutagenesis kit into a vector containing EGFR L858R mutation (Stratagene; La Jolla, CA) according to the manufacturers instructions. All constructs were confirmed by DNA sequencing. The constructs were then shuttled into the retroviral vector JP1540 by either using the Cre-recombination system (Agilent Technologies, Santa Clara, CA) or the In-fusion HD Cloning kit (TakaR^a Bio USA, Inc.; Mountain view, CA). Ba/F3 cells were then infected with retrovirus per standard protocols, as described previously (Zhou, et al, Nature 2009). Stable clones were obtained by selection in puromycin (2 μg/ml). All BaF/3 mutant cells were maintained in RPMI 1640 (Cellgro; Mediatech Inc., Herndon, CA) supplemented with 10% FBS, 100 units/mL penicillin, 100 units/mL streptomycin.
(§4) Growth and inhibition of growth was assessed by the Cell Titer Glo assay (Promega, Madison, WI) and was performed according to the manufacturer's instructions. The Cell Titer Glo assay is a luminescence-based method used to determine the number of viable cells based on quantitation of the ATP present, which is directly proportional to the amount of metabolically active cells present. Ba/F3 cells of different EGFR genotypes were exposed to compounds for 72 hours and the number of cells used per experiment was determined empirically as has been previously established (Zhou, et al., Nature 2009). All experimental points were set up in triplicates in 384-well plates. […] The curves were fitted using a non-linear regression model with a sigmoidal dose response.

BaF3 EGFR L858R/C797S = assay: Ba/F3 cell proliferation (Cell Titer Glo); assay type: cell-based, murine; settings: Mus musculus, 72 hours exposure
From the text: as §3, §4

## CN(C)C/C=C/C(=O)Nc1cc2c(Nc3ccc(F)c(Cl)c3)ncnc2cc1O[C@H]1CCOC1 [afatinib]
[1]
  RR (response rate): less than 10%

## C=CC(=O)Nc1cc2cc(c1)-c1cnn(C)c1OCCC[C@@H](C)Cn1c(nc3ccc(Br)cc31)NC2=O [Compound 001]
EGFR L858R/T790M [2]
  Percent Labeling: 80%
[3]
  Percent Labeling: 80%
EGFR L858R
  IC50: > 0.1 µM
EGFR L858R/T790M [4]
  IC50: > 0.1 µM
BaF3 EGFR L858R
  IC50: 2.9 µM
BaF3 EGFR L858R/C797S
  IC50: 1.46 µM

## C=CC(=O)Nc1cc2sc1-c1cnn(C)c1OCCC[C@@H](C)Cn1c(nc3ccc(Br)cc31)NC2=O [Compound 002]
EGFR L858R
  IC50: > 0.1 µM
EGFR L858R/T790M [4]
  IC50: > 0.1 µM
BaF3 EGFR L858R
  IC50: 4.42 µM
BaF3 EGFR L858R/C797S
  IC50: 3.58 µM

## C=CC(=O)Nc1cc2sc1-c1cnccc1OCCC[C@@H](C)Cn1c(nc3ccc(Br)cc31)NC2=O [Compound 003]
BaF3 EGFR L858R
  IC50: 4.43 µM
BaF3 EGFR L858R/C797S
  IC50: 4.03 µM
